Among the data in patent US11773071B2, “Benzothiazepine compounds and their use as bile acid modulators” (Albireo AB, priority 2019, dated 2023) are IC50 and Papp A→B values, retold here.

The term IC50 denotes the concentration that inhibits the measured activity by half. One may read the Papp A→B as how fast a substance crosses the layer from the apical side.

In data set [1] the target is T1, Human IBAT (Homo sapiens, UniProt Q12908).
T1 construct: expressed in transfected cells; Puromycin-selected
T1 sequence (Q12908 1-348): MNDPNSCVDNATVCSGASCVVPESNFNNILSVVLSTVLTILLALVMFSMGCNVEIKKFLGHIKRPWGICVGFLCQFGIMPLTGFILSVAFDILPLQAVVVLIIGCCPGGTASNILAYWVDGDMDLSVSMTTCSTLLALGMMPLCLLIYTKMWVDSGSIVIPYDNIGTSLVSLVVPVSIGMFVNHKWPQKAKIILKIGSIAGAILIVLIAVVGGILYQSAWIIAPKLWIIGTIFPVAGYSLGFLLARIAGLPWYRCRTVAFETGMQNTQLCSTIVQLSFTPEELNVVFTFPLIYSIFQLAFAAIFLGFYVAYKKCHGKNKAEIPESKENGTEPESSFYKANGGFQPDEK
The experiment in a line: IBAT (h/m) assay, human IBAT-overexpressing cells, 3H-taurocholic acid uptake. Format: cell-based. Conditions: 0.25 μM 3H-taurocholic acid and 5 μM cold taurocholic acid, 20 minutes, read-out: hIBAT IC50. In short, it runs like this:
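Human or mouse IBAT-overexpressing cells, seeded 48 h before the assay, were incubated 20 min at 37 °C with 0.25 μM 3H-taurocholic acid plus 5 μM cold taurocholic acid and inhibitor (10-point 3-fold series from 10 μM top, 0.2% DMSO final), in duplicate. After ice stop and washes with 1 mM cold taurocholate, uptake was read by scintillation counting.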

Data set [2] in a line: Bidirectional permeability assay (Caco-2 cells). Particulars: human, Caco-2, absorptive direction (A2B), 10 μM in FaSSIF buffer. It is filed as in vitro ADME. As to the method: Bidirectional Permeability Assay (Caco-2 Cells)
Caco-2 cells (Evotec) were seeded at a density of 70,000 cells/well in Millicell® 24-well cell culture insert plates and maintained in an incubator (37° C., 5% CO2, 95% RH) for 21 days with media change on alternate days.
Stock solutions (10 mM) of the test compounds, atenolol (low permeability marker), propranolol (high permeability marker) and digoxin (substrate for P-gp transport pathway) were prepared in dimethylsulfoxide (DMSO). An intermediate stock solution (1 mM) was prepared by diluting 10 μL of 10 mM master stock solution with 90 μL of neat DMSO. A working stock solution (10 μM) was prepared by diluting 50 μL of 1 mM with 4950 μL of FaSSIF buffer. Post addition of compounds to the FaSSIF, samples were subjected to sonication for 2 hours, and centrifuged at 4000 RPM for 30 minutes at 37° C. The 4 mL of resultant supernatant was directly used in the assay. The final DMSO concentration in the transport experiments was 1%.
On the day of assay, Caco-2 monolayers were washed twice with transport buffer (HBSS, pH 7.4) and pre-incubated for 30 min (37° C., 5% CO2, 95% RH) in an incubator. The electrical resistance of the monolayers was measured with a Millicell®—ERS system. Monolayers with trans-epithelial electrical resistance (TEER) values greater than 350 ohm·cm^2 were selected for the assay.
The assay was conducted in absorptive direction (A2B) and secretory (B2A) directions. Transport experiments were initiated by addition of transport assay buffer (FaSSIF buffer prepared in HBSS) consisting of compounds to the donor compartment (apical chamber A-B; basolateral chamber B-A) in duplicate (n=2) wells. Drug free HBSS buffer (pH 7.4) containing 1% bovine serum albumin (BSA) was introduced to the receiver (A-B-basolateral; B-A-Apical) compartments. The volumes of apical and basolateral compartments were 0.4 and 0.8 mL, respectively. After adding dosing solution, plates were incubated in an incubator for 120 minutes at 37° C. After 120 minutes, donor and receiver samples were collected and matrix matched (1:1, 30 μL study sample+30 μL blank buffer) with the opposite buffer. Dosing samples matrix matched (1:1, 30 μL study sample+30 μL blank buffer) with the opposite buffer. Samples were processed by adding acetonitrile containing internal standard (60 μL study sample+200 μL acetonitrile containing internal standard—Tolbutamide, 500 ng/mL). Samples were vortexed and centrifuged at 4000 rpm for 10 minutes. The obtained supernatant (100 μL) was diluted with 100 μL of water and transferred to fresh 96 well plates. The concentration of compounds in the samples was analyzed by liquid chromatography tandem mass spectrometry (LC-MS/MS) method using discovery grade bio-analytical method, as applicable.
The mean apparent permeability (Papp,×10^−6 cm/sec) of the test compounds, atenolol, propranolol and digoxin were calculated as follows:
[formula] where dq/dt=rate of transport (rate of transport of compound in the receiver compartment), C0=initial concentration in the donor compartment, A=surface area of the effective filter membrane.
For orientation: Caco-2 cells form a polarised layer with tight junctions and transporters.

As for `CCCCC1(CC)CN(c2ccccc2)c2cc(N(C)C)c(OCCC(=O)O)cc2S(=O)(=O)C1` (single isomer, unassigned) [Example 17, 3-((3-butyl-7-(dimethylamino)-3-ethyl-1,1-dioxido-5-phenyl-2,3,4,5-tetrahydro-1,5-benzothiazepin-8-yl)oxy)propanoic acid], the IC50 in data set [1] turned out to be 2 nM. In data set [2], the Papp A→B at 120 min, 10 μM turned out to be 16.5 ×10⁻⁶ cm/s.
